Data reported in PubChem BioAssay AID1963833 (Molecular Pharmacology Branch, DTP, NCI, 2024).

Test system: 883617-216-R-J1-PDC complex spheroid viability
Experiment: Anticancer human tumor 883617-216-R-J1-PDC patient-derived bladder carcinoma cell line growth inhibition [POLQ]
Conditions: for IC50: curve of first compound; for viability, T/C: stronger effect = lower value
Experimental: Multicellular complex tumor spheroid response to Polymerase (POL) inhibitors (novobiocin, ART-558, RP6685) in combination with a variety of drugs and investigational agents in selected tumor cell lines
The POL inhibitors (novobiocin, ART-558, and RP6685) were evaluated both individually and in combination with standard of care and investigational anticancer small molecules within a complex spheroid model of solid tumors. . Complex spheroids include a stromal component modeled by human endothelial cells (HUVEC) and fibroblasts modeled by human mesenchymal stem cells (MSCs). The concentration ranges selected for each drug and investigational agent were based upon clinically achievable concentrations if the clinical Cmax of the agent was known.
Compounds. The drugs and investigational agents: novobiocin (NSC847541), ART-558 (NSC835418), RP-6685 (NSC848927), peposertib (NSC802822), ceralasertib (NSC780249), elimusertib (NSC800525), camonsertib (NSC841442), AZD-1390 (NSC803789), olaparib (NSC753686), talazoparib (NSC767125), rucaparib (NSC756644), sotorasib (NSC818433), MRTX-1133 (NSC836407), SN-38 (NSC673596), topotecan (NSC609699), epotoside (NSC141540), doxorubicin (NSC123127), gemcitabine (NSC613327), 5-fluorouracil (NSC19893), paclitaxel (NSC125973), vemurafenib (NSC761431), MSA-2 (NSC828583), SN-011 (NSC837082), adavosertib (NSC754352), prexasertib (NSC758257), carboplatin (NSC241240) and oxaliplatin (NSC266046), were obtained from the National Cancer Institute (NCI) Developmental Therapeutics Program Chemical Repository (21). The FDA-approved anticancer drug set is available from the Developmental Therapeutics Program at https://dtp.cancer.gov/organization/dscb/obtaining/. […] The stock solutions were prepared in dimethyl sulfoxide (DMSO, Sigma-Aldrich, St. Louis, MO, cat. D2650), except for the platinum compounds which were prepared in saline (Quality Biological, Gaithersburg, MD, cat. 114-055-101), at 800-fold the tested concentration and stored at -70 degrees C prior to their use. All drugs and investigational agents were tested over a range starting from a high concentration at or near the clinical Cmax and decreasing in half-log increments. If the clinical Cmax for an agent had not been determined, the highest concentration tested was 10 microM, except for SN-38, which was tested at a high concentration of 1 microM.
Cell Culture. All cells were maintained in an incubator at 37 degrees C and 5% CO2 with 95% humidity. The PDC lines were cultured according to standard operating procedures established by the NCI PDMR (https://pdmr.cancer.gov). Table 3 of the manuscript, lists the cell lines along with the number of the three cell types plated to form the mct-spheroids and media for tumor cell growth. After thawing, all PDC lines, except 997537-175-T-J1-PDC and 415267-285-R-J2-PDC, were cultured in Matrigel-coated flasks prepared with a working solution of 1X Ham's F-12 nutrient mix, without supplementation (Thermo Fisher Scientific, cat. 11765054), 100 U/mL penicillin-streptomycin (Thermo Fisher Scientific, cat. 15140122), and 2.5% Matrigel (Corning Inc., Corning, NY, cat. 354248) for the first three passages. The two PDC lines 997537-175-T-J1-PDC and 415267-285-R-J2-PDC were cultured on uncoated flasks. The 857933-349-R-J2-PDC line was cultured in 6C/Colon 1B media containing advanced DMEM/F-12 (Thermo Fisher Scientific, cat. 12634028), 10 mM HEPES (Thermo Fisher Scientific, cat. 15630080), 1X GlutaMAX supplement (Thermo Fisher Scientific, cat. 35050061), 0.1 mg/mL primocin (InvivoGen, San Diego, CA, cat. ant-pm-2), 10% defined fetal bovine serum, heat inactivated (HyClone Laboratories Inc., Logan, UT, cat. SH30070.03HI), 50% L-WRN conditioned media (ATCC, cat. CRL-3276), 1.25 mM N-Acetyl-L-cysteine (Sigma-Aldrich, cat. A9165), 10 mM nicotinamide (Sigma-Aldrich, cat. N0636), 1X B-27 supplement (Thermo Fisher Scientific, cat. 17504044), 1X N-2 supplement (Thermo Fisher Scientific, cat. […]

[1] = second compound 0.0316 µM, first compound 0.0316 µM
[2] = second compound 0.0316 µM, first compound 0.1 µM
[3] = second compound 0.0316 µM, first compound 0.316 µM
[4] = second compound 0.0316 µM, first compound 1 µM
[5] = second compound 0.0316 µM, first compound 3.16 µM
[6] = second compound 0.0316 µM, first compound 10 µM
[7] = second compound 0.1 µM, first compound 0.0316 µM
[8] = second compound 0.1 µM, first compound 0.1 µM
[9] = second compound 0.1 µM, first compound 0.316 µM
[10] = second compound 0.1 µM, first compound 1 µM
[11] = second compound 0.1 µM, first compound 3.16 µM
[12] = second compound 0.1 µM, first compound 10 µM
[13] = second compound 0.316 µM, first compound 0.0316 µM
[14] = second compound 0.316 µM, first compound 0.1 µM
[15] = second compound 0.316 µM, first compound 0.316 µM
[16] = second compound 0.316 µM, first compound 1 µM
[17] = second compound 0.316 µM, first compound 3.16 µM
[18] = second compound 0.316 µM, first compound 10 µM
[19] = second compound 1 µM, first compound 0.0316 µM
[20] = second compound 1 µM, first compound 0.1 µM
[21] = second compound 1 µM, first compound 0.316 µM
[22] = second compound 1 µM, first compound 1 µM
[23] = second compound 1 µM, first compound 3.16 µM
[24] = second compound 1 µM, first compound 10 µM
[25] = second compound 3.16 µM, first compound 0.0316 µM
[26] = second compound 3.16 µM, first compound 0.1 µM
[27] = second compound 3.16 µM, first compound 0.316 µM
[28] = second compound 3.16 µM, first compound 1 µM
[29] = second compound 3.16 µM, first compound 3.16 µM
[30] = second compound 3.16 µM, first compound 10 µM
[31] = second compound 10 µM, first compound 0.0316 µM
[32] = second compound 10 µM, first compound 0.1 µM
[33] = second compound 10 µM, first compound 0.316 µM
[34] = second compound 10 µM, first compound 1 µM
[35] = second compound 10 µM, first compound 3.16 µM
[36] = second compound 10 µM, first compound 10 µM
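Note: spheroids exposed to compounds for seven days before readout.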
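Throughout, for viability, T/C: 100% = DMSO vehicle control viability.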

## C#Cc1c(F)ccc2cc(O)cc(-c3ncc4c(N5CC6CCC(C5)N6)nc(OCC56CCCN5CC(F)C6)nc4c3F)c12 (centres undefined) + Cc1cccc(N(C)C(=O)C2C(O)CCN2c2nc(C)cc(C(F)(F)F)c2C#N)c1
Second compound 0.0316 µM
  IC50: > 10 µM
Second compound 0.1 µM
  IC50: > 10 µM
Second compound 0.316 µM
  IC50: > 10 µM
Second compound 1 µM
  IC50: > 10 µM
Second compound 3.16 µM
  IC50: > 10 µM
Second compound 10 µM
  IC50: > 10 µM
[1]
  viability, T/C: 98.1%
[2]
  viability, T/C: 109%
[3]
  viability, T/C: 97.7%
[4]
  viability, T/C: 95.1%
[5]
  viability, T/C: 86.8%
[6]
  viability, T/C: 70.1%
[7]
  viability, T/C: 98%
[8]
  viability, T/C: 104%
[9]
  viability, T/C: 109%
[10]
  viability, T/C: 89.8%
[11]
  viability, T/C: 86.2%
[12]
  viability, T/C: 81.4%
[13]
  viability, T/C: 108%
[14]
  viability, T/C: 101%
[15]
  viability, T/C: 110%
[16]
  viability, T/C: 100%
[17]
  viability, T/C: 80.6%
[18]
  viability, T/C: 77.6%
[19]
  viability, T/C: 104%
[20]
  viability, T/C: 99%
[21]
  viability, T/C: 106%
[22]
  viability, T/C: 89.9%
[23]
  viability, T/C: 86.5%
[24]
  viability, T/C: 72.2%
[25]
  viability, T/C: 103%
[26]
  viability, T/C: 101%
[27]
  viability, T/C: 97.8%
[28]
  viability, T/C: 94.5%
[29]
  viability, T/C: 81.5%
[30]
  viability, T/C: 78%
[31]
  viability, T/C: 115%
[32]
  viability, T/C: 102%
[33]
  viability, T/C: 104%
[34]
  viability, T/C: 106%
[35]
  viability, T/C: 87.7%
[36]
  viability, T/C: 76.2%

## CCc1cc2c(N3CCc4c(cc(Cn5ccnc5)cc4-c4cn(C)nc4C(F)(F)F)C3=O)ccnc2c(OC)n1 + Cc1cccc(N(C)C(=O)C2C(O)CCN2c2nc(C)cc(C(F)(F)F)c2C#N)c1
Second compound 0.0316 µM
  IC50: > 10 µM
Second compound 0.1 µM
  IC50: > 10 µM
Second compound 0.316 µM
  IC50: 8.04 µM
Second compound 1 µM
  IC50: > 10 µM
Second compound 3.16 µM
  IC50: 8.36 µM
Second compound 10 µM
  IC50: 8.04 µM
[1]
  viability, T/C: 91.7%
[2]
  viability, T/C: 103%
[3]
  viability, T/C: 82.1%
[4]
  viability, T/C: 82%
[5]
  viability, T/C: 70%
[6]
  viability, T/C: 53.5%
[7]
  viability, T/C: 93%
[8]
  viability, T/C: 107%
[9]
  viability, T/C: 84.2%
[10]
  viability, T/C: 96.6%
[11]
  viability, T/C: 73.4%
[12]
  viability, T/C: 50.7%
[13]
  viability, T/C: 102%
[14]
  viability, T/C: 104%
[15]
  viability, T/C: 101%
[16]
  viability, T/C: 98%
[17]
  viability, T/C: 76.6%
[18]
  viability, T/C: 43.7%
[19]
  viability, T/C: 98.4%
[20]
  viability, T/C: 101%
[21]
  viability, T/C: 87.8%
[22]
  viability, T/C: 94.4%
[23]
  viability, T/C: 68.2%
[24]
  viability, T/C: 61.1%
[25]
  viability, T/C: 99.6%
[26]
  viability, T/C: 103%
[27]
  viability, T/C: 87.7%
[28]
  viability, T/C: 86.9%
[29]
  viability, T/C: 66.1%
[30]
  viability, T/C: 47%
[31]
  viability, T/C: 115%
[32]
  viability, T/C: 104%
[33]
  viability, T/C: 88.3%
[34]
  viability, T/C: 92.9%
[35]
  viability, T/C: 76.6%
[36]
  viability, T/C: 42.6%
